# Measurements reported in paper PMC9344893 (ACS Medicinal Chemistry Letters, 2022).
# Key:
# [1] = tested on: panel of 10 human MTases; test: Human MTase screening, panel as a whole; type: biochemical; conditions: 10 μM
# [2] = biological target: SARS-CoV-2 Nsp14 MTase (Severe acute respiratory syndrome coronavirus 2, UniProt P0DTD1); type: biochemical
# [3] = tested on: A549/ACE2/TMPRSS2 cells; test: Cell viability assay; type: cell-based
# [4] = tested on: SARS-CoV-2 isolate USA-WA1/2020
smiles,measurement,setting,value
Nc1ncnc2c1ncn2[C@@H]1O[C@H](CNS(=O)(=O)c2ccc3ccccc3c2)[C@@H](O)[C@H]1O [Compound 3],inhibition of the set of human MTases (in words),[1],minimal inhibition
same,fold more active than compound 1,[2],> 150 fold
Nc1ncnc2c1ncn2[C@@H]1O[C@H](CNS(=O)(=O)c2ccc3nc(Cl)ccc3c2)[C@@H](O)[C@H]1O [Compound 5],fold reduction in inhibitory activity,[2],7 fold
CC(=O)O[C@@H]1[C@H](OC(C)=O)[C@@H](CNS(=O)(=O)c2ccc3ccccc3c2)O[C@H]1n1cnc2c(N)ncnc21 [Compound 8],cytotoxicity at 100 μM (in words),[3],minimal cytotoxicity
CC(=O)Nc1ncnc2c1ncn2[C@@H]1O[C@H](CNS(=O)(=O)c2ccc3ccccc3c2)[C@@H](OC(C)=O)[C@H]1OC(C)=O [Compound 9],cytotoxicity at 100 μM (in words),[3],minimal cytotoxicity
Nc1ncnn2c([C@@H]3O[C@H](CNS(=O)(=O)c4ccc5ccccc5c4)[C@@H](O)[C@H]3O)ccc12 [Compound 10],therapeutic index (TI = CC50/EC50),[4]; A549 AT cells,greater than 139
"Nc1ncnc2c1ncn2[C@@H]1O[C@H](C[C@@H](N)CC[C@H](N)C(=O)O)[C@@H](O)[C@H]1O [sinefungin, reference compound]",antiviral activity (in words),[4],failed to show any activity
